Test results from patent US6368788B1 (priority 1987, dated 2002).
Marks after values point to notes of the source that are not given here.

Tests used:
C. albicans = assay: Disseminated candidiasis: mean survival and kidney infection (Study 41B); assay type: in vivo, mice; settings: for Kidney Infection: greater than 8 logs of C. albicans, day 5
Method: Study 41B: Using a standardized inoculum (i.e., 10^8 cells/mL), the LD95 value (=14.9×10^6 cells/animal) was determined by injecting different numbers of C. albicans cells iv into mice and recording deaths at 20 days. L-Glu-L-Trp was administered ip at doses of 1, 10, 100 and 300 μg/kg in either a prophylactic or therapeutic drug regimen (abbreviated PDR or TDR, respectively). Prophylaxis consisted of 3 ip injections on 3 consecutive days, with the last injection being 3 hours before injecting the C. albicans cells iv. Therapy consisted of 10 consecutive daily ip injections starting 24 hours after the iv injection of the C. albicans cells. Mean survival was determined at 10 days, and as an independent monitor for infection, kidneys were removed from nine parallel groups (12 animals each) of infected animals at 5 days and after microbiological isolation the numbers of C. albicans cultures counted.

[1] = system: lymphocytes of thymus, spleen, lymph nodes, peripheral blood; assay: Recovery of immune cells in irradiated guinea pigs (1 Gy); assay type: in vivo; settings: for E-RFC / E-RFC (% Normal) / EA-RFC / EA-RFC (% Normal) / EAC-RFC / EAC-RFC (% Normal) / Lymphocytes / Lymphocytes (% Normal) / Lymphocyte Blastogenesis with Con-A / Neutrophil Cationic Protein Levels: 0.01 mg/kg daily 5 days
Description: X-irradiation an accepted experimental animal model for depressing cellular immune mechanisms operative in anti-bacterial, anti-viral, and anti-parasitic immunity. The levels of lymphocytes in thymus, spleen, and lymph node are decreased following sub-lethal radiation exposure, and the effects of L-Glu-L-Trp on recovery of immune function following radiation exposure were investigated in this model.
142 guinea pigs were exposed to 1 Gy of X-irradiation and then treated with L-Glu-L-Trp at a dose of 0.01 mg/kg daily for 5 days starting two days after the irradiation. Immunologic indices were determined at 5, 10, and 20 days by preparing samples of immune cells from thymus, spleen, lymph nodes, and peripheral blood. Cell preparations were analyzed to determine the content of lymphocytes, E-RFC (i.e., T-lymphocytes), EA-RFC (“activated” T-lymphocytes), and EAC-RFC (i.e., B-lymphocytes). (The materials and methods used in these analyses are presented following EXAMPLE 38, below. The results obtained in these experiments are summarized in TABLE 55. […]
Neutrophil cationic proteins were determined according to the method of V. E. Pigarevsky and Yu. A. Mazing (1981). Briefly, blood smears were air dried, stained for 20 minutes in a buffered methanol.-fast green solution, washed in distilled water, and stained for an additional 30 minutes with Azure 11. The percentage of cells containing green-colored granules was determined by microscopically counting a minimum of 100-200 of the cells in the smears, and cation protein concentration was recorded as the mean cytotoxic coefficient (MCC) according to a modified formula of Astold & Berg.

[2] = lymph node, 5 days post irradiation (1 Gy)
[3] = lymph node, 10 days post irradiation (1 Gy)
[4] = lymph node, 20 days post irradiation (1 Gy)
[5] = peripheral blood, 5 days post-irradiation
[6] = peripheral blood, 10 days post-irradiation
[7] = peripheral blood, 20 days post-irradiation
[8] = splenic, 5 days post irradiation (1 Gy)
[9] = splenic, 10 days post irradiation (1 Gy)
[10] = splenic, 20 days post irradiation (1 Gy)
[11] = thymic, 5 days post irradiation (1 Gy)
[12] = thymic, 10 days post irradiation (1 Gy)
[13] = thymic, 20 days post irradiation (1 Gy)

Substance: L-Glu-L-Trp
- Survival % 6d (C. albicans; PDR, 1 μg/kg ip): 50%
- Survival % 8d (C. albicans; PDR, 1 μg/kg ip): 20%
- Survival Mean (C. albicans; PDR, 1 μg/kg ip): 6.2 ± 2.0 days
- Kidney Infection (C. albicans; PDR, 1 μg/kg ip): 58%
- Survival % 6d (C. albicans; PDR, 10 μg/kg ip): 60%
- Survival % 8d (C. albicans; PDR, 10 μg/kg ip): 20%
- Survival Mean (C. albicans; PDR, 10 μg/kg ip): 6.4 ± 2.2 days
- Kidney Infection (C. albicans; PDR, 10 μg/kg ip): 58%
- Survival % 6d (C. albicans; PDR, 100 μg/kg ip): 80%
- Survival % 8d (C. albicans; PDR, 100 μg/kg ip): 40%
- Survival Mean (C. albicans; PDR, 100 μg/kg ip): 7.9 ± 1.9 days
- Kidney Infection (C. albicans; PDR, 100 μg/kg ip): 75%
- Survival % 6d (C. albicans; PDR, 300 μg/kg ip): 80%
- Survival % 8d (C. albicans; PDR, 300 μg/kg ip): 50%
- Survival Mean (C. albicans; PDR, 300 μg/kg ip): 7.8 ± 2.1 days
- Kidney Infection (C. albicans; PDR, 300 μg/kg ip): 58%
- Survival % 6d (C. albicans; TDR, 1 μg/kg ip): 60%
- Survival % 8d (C. albicans; TDR, 1 μg/kg ip): 50%
- Survival Mean (C. albicans; TDR, 1 μg/kg ip): 7.3 ± 2.7 days
- Kidney Infection (C. albicans; TDR, 1 μg/kg ip): 67%
- Survival % 6d (C. albicans; TDR, 10 μg/kg ip): 50%
- Survival % 8d (C. albicans; TDR, 10 μg/kg ip): 30%
- Survival Mean (C. albicans; TDR, 10 μg/kg ip): 6.2 ± 2.2 days
- Kidney Infection (C. albicans; TDR, 10 μg/kg ip): 50%
- Survival % 6d (C. albicans; TDR, 100 μg/kg ip): 80%
- Survival % 8d (C. albicans; TDR, 100 μg/kg ip): 50%
- Survival Mean (C. albicans; TDR, 100 μg/kg ip): 7.8 ± 1.9 days
- Kidney Infection (C. albicans; TDR, 100 μg/kg ip): 75%
- Survival % 6d (C. albicans; TDR, 300 μg/kg ip): 80%
- Survival % 8d (C. albicans; TDR, 300 μg/kg ip): 40%
- Survival Mean (C. albicans; TDR, 300 μg/kg ip): 7.8 ± 2.1 days
- Kidney Infection (C. albicans; TDR, 300 μg/kg ip): 67%
- Survival (C. albicans; prophylactic and therapeutic treatments): significantly increased the number of animals surviving at days 6 and 8
- Splenic B-lymphocytes (EAC-RFC), % of normal ([1]; day 5): 82%
- Thymic T-lymphocyte counts, % of normal ([1]; day 5): 67%
- Thymic lymphocytes, % of normal ([1]; day 5): 82%
- Splenic B-lymphocytes (EAC-RFC), % of normal ([1]; day 10): 100%
- Thymic T-lymphocyte counts, % of normal ([1]; day 10): 51%
- Thymic lymphocytes, % of normal ([1]; day 10): 56%
- Lymph node T-lymphocyte counts ([1]; guinea pig, in vivo): significantly increased T-lymphocyte counts in lymph nodes on days 5, 10 and 20
- E-RFC [1, 2]: 40 +/− 4** × 10^9/L
- E-RFC (% Normal) [1, 2]: (122%)
- EA-RFC [1, 2]: 20 +/− 3** × 10^9/L
- EA-RFC (% Normal) [1, 2]: (111%)
- EAC-RFC [1, 2]: 25 +/− 2** × 10^9/L
- EAC-RFC (% Normal) [1, 2]: (45%)
- Lymphocytes [1, 2]: 183 +/− 21* × 10^9/L
- Lymphocytes (% Normal) [1, 2]: (73%)
- E-RFC [1, 3]: 29 +/− 3** × 10^9/L
- E-RFC (% Normal) [1, 3]: (88%)
- EA-RFC [1, 3]: 17 +/− 2** × 10^9/L
- EA-RFC (% Normal) [1, 3]: (94%)
- EAC-RFC [1, 3]: 12 +/− 1* × 10^9/L
- EAC-RFC (% Normal) [1, 3]: (21%)
- Lymphocytes [1, 3]: 75 +/− 13* × 10^9/L
- Lymphocytes (% Normal) [1, 3]: (30%)
- E-RFC [1, 4]: 30 +/− 2** × 10^9/L
- E-RFC (% Normal) [1, 4]: (91%)
- EA-RFC [1, 4]: 25 +/− 4** × 10^9/L
- EA-RFC (% Normal) [1, 4]: (139%)
- EAC-RFC [1, 4]: 9 +/− 1* × 10^9/L
- EAC-RFC (% Normal) [1, 4]: (16%)
- Lymphocytes [1, 4]: 242 +/− 31** × 10^9/L
- Lymphocytes (% Normal) [1, 4]: (96%)
- Con-A responsiveness and neutrophil cationic proteins ([1]; peripheral blood): statistically significant decrease in Con-A responsiveness and increased levels of neutrophil cationic proteins
- Lymphocyte Blastogenesis with Con-A [1, 5]: 44 +/− 4** %
- Neutrophil Cationic Protein Levels [1, 5]: 1.42 +/− 0.15*
- Lymphocyte Blastogenesis with Con-A [1, 6]: 67 +/− 5** %
- Neutrophil Cationic Protein Levels [1, 6]: 1.54 +/− 0.09**
- Lymphocyte Blastogenesis with Con-A [1, 7]: 49 +/− 2** %
- Neutrophil Cationic Protein Levels [1, 7]: 1.63 +/− 0.11**
- E-RFC [1, 8]: 48 +/− 4** × 10^9/L
- E-RFC (% Normal) [1, 8]: (120%)
- EA-RFC [1, 8]: 22 +/− 4** × 10^9/L
- EA-RFC (% Normal) [1, 8]: (85%)
- EAC-RFC [1, 8]: 60 +/− 5** × 10^9/L
- EAC-RFC (% Normal) [1, 8]: (82%)
- Lymphocytes [1, 8]: 378 +/− 36** × 10^9/L
- Lymphocytes (% Normal) [1, 8]: (92%)
- E-RFC [1, 9]: 29 +/− 3* × 10^9/L
- E-RFC (% Normal) [1, 9]: (73%)
- EA-RFC [1, 9]: 15 +/− 2* × 10^9/L
- EA-RFC (% Normal) [1, 9]: (58%)
- EAC-RFC [1, 9]: 73 +/− 5** × 10^9/L
- EAC-RFC (% Normal) [1, 9]: (100%)
- Lymphocytes [1, 9]: 147 +/− 18** × 10^9/L
- Lymphocytes (% Normal) [1, 9]: (36%)
- E-RFC [1, 10]: 45 +/− 4** × 10^9/L
- E-RFC (% Normal) [1, 10]: (113%)
- EA-RFC [1, 10]: 29 +/− 4** × 10^9/L
- EA-RFC (% Normal) [1, 10]: (112%)
- EAC-RFC [1, 10]: 82 +/− 9 × 10^9/L
- EAC-RFC (% Normal) [1, 10]: (112%)
- Lymphocytes [1, 10]: 260 +/− 32** × 10^9/L
- Lymphocytes (% Normal) [1, 10]: (64%)
- E-RFC [1, 11]: 252 +/− 26** × 10^9/L
- E-RFC (% Normal) [1, 11]: (67%)
- EA-RFC [1, 11]: 150 +/− 16** × 10^9/L
- EA-RFC (% Normal) [1, 11]: (52%)
- EAC-RFC [1, 11]: 4 +/− 1** × 10^9/L
- EAC-RFC (% Normal) [1, 11]: (80%)
- Lymphocytes [1, 11]: 395 +/− 27** × 10^9/L
- Lymphocytes (% Normal) [1, 11]: (82%)
- E-RFC [1, 12]: 195 +/− 21** × 10^9/L
- E-RFC (% Normal) [1, 12]: (51%)
- EA-RFC [1, 12]: 143 +/− 16** × 10^9/L
- EA-RFC (% Normal) [1, 12]: (49%)
- EAC-RFC [1, 12]: 3 +/− 0.4* × 10^9/L
- EAC-RFC (% Normal) [1, 12]: (60%)
- Lymphocytes [1, 12]: 276 +/− 26** × 10^9/L
- Lymphocytes (% Normal) [1, 12]: (57%)
- E-RFC [1, 13]: 343 +/− 30** × 10^9/L
- E-RFC (% Normal) [1, 13]: (91%)
- EA-RFC [1, 13]: 243 +/− 28** × 10^9/L
- EA-RFC (% Normal) [1, 13]: (84%)
- EAC-RFC [1, 13]: 4 +/− 0.4 × 10^9/L
- EAC-RFC (% Normal) [1, 13]: (80%)
- Lymphocytes [1, 13]: 423 +/− 40** × 10^9/L
- Lymphocytes (% Normal) [1, 13]: (88%)
